Measurements taken from patent US11939314B2, “Quinolin-2-one derivatives” (MERCK PATENT GMBH, priority 2016, dated 2024).

Experiments:
[1] = molecular target: T1, PDGFRalpha(V561D) (Homo sapiens, UniProt P16234, V561D); experiment: PDGFRalpha(V561D) assay; type: biochemical; details: recombinant human PDGFRalpha aa 550-end, 200 μM ATP, 1.4E-06 means 1.4×10^−6, read-out: Inhibition (IC50) of PDGFRα (V561D)
T1 construct: recombinant human PDGFRalpha, amino acids 550end containing the V561 D mutation; 6His (N)
Outline: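 Radiometric filter-binding assay: substrate phosphorylation by recombinant N-His-tagged human PDGFRα 550-end V561D was quenched with 3% phosphoric acid after 40 min at room temperature, then counted.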

[2] = molecular target: T2, c-Kit(V654A) (Homo sapiens, UniProt P10721, V654A); experiment: c-Kit(V654A) assay; type: biochemical; details: recombinant human c-Kit aa 544-end, 200 μM ATP, 1.4E-06 means 1.4×10^−6, read-out: Inhibition (IC50) of c-KIT (V654A)
T2 construct: amino acids 544-end containing the V654A mutation; GST (N)
Outline: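 Radiometric filter-binding read-out: substrate 33P incorporation counted by scintillation after P30 filtermat washes in 75 mM phosphoric acid and methanol. Enzyme: N-GST recombinant human c-Kit aa 544-end carrying V654A.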

T1 sequence (P16234 550-1089 V561D): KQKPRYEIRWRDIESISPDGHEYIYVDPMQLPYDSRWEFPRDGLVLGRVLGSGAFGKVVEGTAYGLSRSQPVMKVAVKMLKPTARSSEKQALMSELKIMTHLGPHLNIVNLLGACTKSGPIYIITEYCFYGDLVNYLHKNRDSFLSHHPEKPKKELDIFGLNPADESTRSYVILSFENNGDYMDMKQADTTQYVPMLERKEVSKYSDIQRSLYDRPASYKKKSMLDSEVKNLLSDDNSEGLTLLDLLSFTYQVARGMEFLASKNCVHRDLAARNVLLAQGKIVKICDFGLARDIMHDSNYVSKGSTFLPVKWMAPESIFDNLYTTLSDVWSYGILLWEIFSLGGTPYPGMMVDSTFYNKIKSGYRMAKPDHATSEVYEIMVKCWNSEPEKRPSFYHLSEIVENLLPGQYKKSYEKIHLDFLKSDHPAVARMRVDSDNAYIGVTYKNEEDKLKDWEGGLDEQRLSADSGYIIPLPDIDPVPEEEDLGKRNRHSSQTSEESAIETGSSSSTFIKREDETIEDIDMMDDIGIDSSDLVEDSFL
T2 sequence (P10721 544-976 V654A): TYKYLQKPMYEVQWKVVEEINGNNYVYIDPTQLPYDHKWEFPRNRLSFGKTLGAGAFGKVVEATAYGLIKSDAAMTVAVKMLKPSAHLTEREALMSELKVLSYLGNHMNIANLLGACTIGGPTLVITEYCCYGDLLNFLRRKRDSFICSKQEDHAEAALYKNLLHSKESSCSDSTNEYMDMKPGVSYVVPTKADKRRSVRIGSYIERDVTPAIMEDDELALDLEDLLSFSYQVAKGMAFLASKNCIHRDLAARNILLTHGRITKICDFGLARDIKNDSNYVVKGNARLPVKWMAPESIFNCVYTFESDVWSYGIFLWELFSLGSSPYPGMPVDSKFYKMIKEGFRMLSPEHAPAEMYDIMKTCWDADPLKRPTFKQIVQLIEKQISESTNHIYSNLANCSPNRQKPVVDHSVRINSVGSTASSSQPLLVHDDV

| IC50 [1] [nM] | IC50 [2] [nM] | SMILES |
| --- | --- | --- |
| 3.4 | 12 | COCC1CCN(C(=O)c2ccc(-n3cc(-c4cc5cc(F)c(F)cc5[nH]c4=O)nn3)cc2)C1 (stereo not shown) [A109, 6,7-difluoro-3-{1-[4-(3-methoxymethyl-pyrrolidine-1-carbonyl)-phenyl]-1H-[1,2,3]triazol-4-yl}-1H-quinolin-2-one] |
| 28 | 39 | CN1CCN(C(=O)c2ccc(-n3cc(-c4cc5cc(F)ccc5[nH]c4=O)nn3)cc2)CCC1=O [A110, 6-fluoro-3-{1-[4-(4-methyl-5-oxo-[1,4]diazepane-1-carbonyl)-phenyl]-1H-[1,2,3]triazol-4-yl}-1H-quinolin-2-one] |
| 18 | 7.7 | CO[C@@H]1CCN(C(=O)c2ccc(-n3cc(-c4cc5cc(F)ccc5[nH]c4=O)nn3)cc2)C1 [A111, 6-fluoro-3-{1-[4-((R)-3-methoxy-pyrrolidine-1-carbonyl)-phenyl]-1H-[1,2,3]triazol-4-yl}-1H-quinolin-2-one] |
| 64 | 16 | CO[C@H]1CCN(C(=O)c2ccc(-n3cc(-c4cc5cc(F)ccc5[nH]c4=O)nn3)cc2)C1 [A112, 6-fluoro-3-{1-[4-((S)-3-methoxy-pyrrolidine-1-carbonyl)-phenyl]-1H-[1,2,3]triazol-4-yl}-1H-quinolin-2-one] |
| 36 | 8.6 | CO[C@@H]1CCN(C(=O)c2ccc(-n3cc(-c4cc5cc(F)c(F)cc5[nH]c4=O)nn3)cc2)C1 [A113, 6,7-difluoro-3-{1-[4-((R)-3-methoxy-pyrrolidine-1-carbonyl)-phenyl]-1H-[1,2,3]triazol-4-yl}-1H-quinolin-2-one] |
| 140 | 20 | CO[C@H]1CCN(C(=O)c2ccc(-n3cc(-c4cc5cc(F)c(F)cc5[nH]c4=O)nn3)cc2)C1 [A114, 6,7-difluoro-3-{1-[4-((S)-3-methoxy-pyrrolidine-1-carbonyl)-phenyl]-1H-[1,2,3]triazol-4-yl}-1H-quinolin-2-one] |
| 1400 | 180 | CN(C)CCc1ccc(-n2cc(-c3cc4cc(F)c(F)cc4[nH]c3=O)nn2)cc1 [A115, 3-{1-[4-(2-dimethylamino-ethyl)-phenyl]-1H-[1,2,3]triazol-4-yl}-6,7-difluoro-1H-quinolin-2-one] |
| 1500 | 160 | O=c1[nH]c2cc(F)c(F)cc2cc1-c1cn(-c2ccc(CCN3CCCC3)cc2)nn1 [A115a, 6,7-difluoro-3-{1-[4-(2-pyrrolidin-1-yl-ethyl)-phenyl]-1H-[1,2,3]triazol-4-yl}-1H-quinolin-2-one] |
| 11 | 28 | O=C(c1ccc(-n2cc(-c3cc4ccc(F)cc4[nH]c3=O)nn2)cc1)N1CCNCC1 [A117, 7-fluoro-3-{1-[4-(piperazine-1-carbonyl)-phenyl]-1H-[1,2,3]triazol-4-yl}-1H-quinolin-2-one] |
| 5 | 16 | CN1CCN(C(=O)c2ccc(-n3cc(-c4cc5ccc(F)cc5[nH]c4=O)nn3)cc2)CC1 [A118, 7-fluoro-3-{1-[4-(4-methyl-piperazine-1-carbonyl)-phenyl]-1H-[1,2,3]triazol-4-yl}-1H-quinolin-2-one] |
| 46 | 9 | O=C(c1ccc(-n2cc(-c3cc4c(F)cccc4[nH]c3=O)nn2)cc1)N1CCNCC1 [A119, 5-fluoro-3-{1-[4-(piperazine-1-carbonyl)-phenyl]-1H-[1,2,3]triazol-4-yl}-1H-quinolin-2-one] |
| 230 | 280 | O=C(c1ccc(-n2cc(-c3cc4cccc(F)c4[nH]c3=O)nn2)cc1)N1CCNCC1 [A120, 8-fluoro-3-{1-[4-(piperazine-1-carbonyl)-phenyl]-1H-[1,2,3]triazol-4-yl}-1H-quinolin-2-one] |
| 16 | 40 | O=C(c1ccc(-n2cc(-c3cc4cccnc4[nH]c3=O)nn2)cc1)N1CCNCC1 [A121, 3-{1-[4-(piperazine-1-carbonyl)-phenyl]-1H-[1,2,3]triazol-4-yl}-1H-[1,8]naphthyridin-2-one] |
| 5 | 73 | O=C(c1ccc(-n2cc(-c3cc4cc(F)cnc4[nH]c3=O)nn2)cc1)N1CCNCC1 [A122, 6-fluoro-3-{1-[4-(piperazine-1-carbonyl)-phenyl]-1H-[1,2,3]triazol-4-yl}-1H-[1,8]naphthyridin-2-one] |
| 1 | 5 | O=C(c1ccc(-n2cc(-c3cc4cc(Cl)ccc4[nH]c3=O)nn2)cc1)N1CCNCC1 [A123, 6-chloro-3-{1-[4-(piperazine-1-carbonyl)-phenyl]-1H-[1,2,3]triazol-4-yl}-1H-quinolin-2-one] |
| 9 | 66 | O=c1[nH]c2ncc(F)cc2cc1-c1cn(-c2ccc(N3CCCNCC3)cc2)nn1 [A124, 3-[1-(4-[1,4]diazepan-1-yl-phenyl)-1H-[1,2,3]triazol-4-yl]-6-fluoro-1H-[1,8]naphthyridin-2-one] |

| IC50 [1] [nM] | IC50 [2] [nM] | SMILES |
| --- | --- | --- |
| 6 | 34 | O=C(c1cccc(-n2cc(-c3cc4cc(F)ccc4[nH]c3=O)nn2)c1)N1CCNCC1 [A125, 6-fluoro-3-{1-[3-(piperazine-1-carbonyl)-phenyl]-1H-[1,2,3]triazol-4-yl}-1H-quinolin-2-one] |
| 42 | 19 | O=C(c1ccc(-n2cc(-c3cc4ccc(Cl)cc4[nH]c3=O)nn2)cc1)N1CCNCC1 [A126, 7-chloro-3-{1-[4-(piperazine-1-carbonyl)-phenyl]-1H-[1,2,3]triazol-4-yl}-1H-quinolin-2-one] |
| 79 | 38 | O=C(c1ccc(-n2cc(-c3cc4c(F)c(F)ccc4[nH]c3=O)nn2)cc1)N1CCNCC1 [A127, 5,6-difluoro-3-{1-[4-(piperazine-1-carbonyl)-phenyl]-1H-[1,2,3]triazol-4-yl}-1H-quinolin-2-one] |
| 9.7 | 41 | O=C(c1ccc(-n2cc(-c3cc4cc(F)c(F)cc4[nH]c3=O)nn2)cc1)N1CCNCC1 [A128, 6,7-difluoro-3-{1-[4-(piperazine-1-carbonyl)-phenyl]-1H-[1,2,3]triazol-4-yl}-1H-quinolin-2-one] |
| 48 | 13 | O=c1[nH]c2ccc(F)cc2cc1-c1cn(-c2ccc(S(=O)(=O)N3CCNCC3)cc2)nn1 [A129, 6-fluoro-3-{1-[4-(piperazine-1-sulfonyl)-phenyl]-1H-[1,2,3]triazol-4-yl}-1H-quinolin-2-one] |
| 170 | 35 | O=c1[nH]c2cc(F)c(F)cc2cc1-c1cn(-c2ccc(OCCN3CCNCC3)cc2)nn1 [A130, 6,7-difluoro-3-{1-[4-(2-piperazin-1-yl-ethoxy)-phenyl]-1H-[1,2,3]triazol-4-yl}-1H-quinolin-2-one] |
| 38 | 9.7 | O=c1[nH]c2ccc(F)cc2cc1-c1cn(-c2ccc(OCCCN3CCNCC3)cc2)nn1 [A131, 6-fluoro-3-{1-[4-(3-piperazin-1-yl-propoxy)-phenyl]-1H-[1,2,3]triazol-4-yl}-1H-quinolin-2-one] |
| 0.8 | 7.5 | O=C(c1ccc(-n2cc(-c3cc4cc(F)ccc4[nH]c3=O)nn2)cc1)C1CCNCC1 [A132, 6-fluoro-3-{1-[4-(piperidine-4-carbonyl)-phenyl]-1H-[1,2,3]triazol-4-yl}-1H-quinolin-2-one] |
| 6.4 | 11 | O=c1[nH]c2ccc(F)cc2cc1-c1cn(-c2ccc(OCCC3CCNCC3)cc2)nn1 [A133, 6-fluoro-3-{1-[4-(2-piperidin-4-yl-ethoxy)-phenyl]-1H-[1,2,3]triazol-4-yl}-1H-quinolin-2-one] |
| 16 | 17 | O=c1[nH]c2cc(F)c(F)cc2cc1-c1cn(-c2ccc(OCCC3CCNCC3)cc2)nn1 [A134, 6,7-difluoro-3-{1-[4-(2-piperidin-4-yl-ethoxy)-phenyl]-1H-[1,2,3]triazol-4-yl}-1H-quinolin-2-one] |
| 310 | 180 | O=c1[nH]c2cc(F)c(F)cc2cc1-c1cn(-c2ccc(OCCCN3CCNCC3)cc2)nn1 [A135, 6,7-difluoro-3-{1-[4-(3-piperazin-1-yl-propoxy)-phenyl]-1H-[1,2,3]triazol-4-yl}-1H-quinolin-2-one] |
| 18 | 15 | O=C(c1ccc(-n2cc(-c3cc4cc(F)c(F)cc4[nH]c3=O)nn2)cc1)C1CCNCC1 [A136, 6,7-difluoro-3-{1-[4-(piperidine-4-carbonyl)-phenyl]-1H-[1,2,3]triazol-4-yl}-1H-quinolin-2-one] |
| 42 | 40 | Cc1ccc2[nH]c(=O)c(-c3cn(-c4ccc(C(=O)N5CCNCC5)cc4)nn3)cc2c1 [A137, 6-methyl-3-{1-[4-(piperazine-1-carbonyl)-phenyl]-1H-[1,2,3]triazol-4-yl}-1H-quinolin-2-one] |
| 86 | 11 | O=C(Cn1ccc2cc(-n3cc(-c4cc5c(F)cc(F)cc5[nH]c4=O)nn3)ccc21)N1CCNCC1 [A138, 5,7-difluoro-3-{1-[1-(2-oxo-2-piperazin-1-yl-ethyl)-1H-indol-5-yl]-1H-[1,2,3]triazol-4-yl}-1H-quinolin-2-one] |
| 3800 | 12 | O=C(Cn1ccc2cc(-n3cc(-c4cc5cc(F)c(F)cc5[nH]c4=O)nn3)ccc21)N1CCNCC1 [A139, 6,7-difluoro-3-{1-[1-(2-oxo-2-piperazin-1-yl-ethyl)-1H-indol-5-yl]-1H-[1,2,3]triazol-4-yl}-1H-quinolin-2-one] |
| 28 | 14 | O=C(COc1ccc(-n2cc(-c3cc4cc(F)c(F)cc4[nH]c3=O)nn2)cc1)N1CCNCC1 [A140, 6,7-difluoro-3-{1-[4-(2-oxo-2-piperazin-1-yl-ethoxy)-phenyl]-1H-[1,2,3]triazol-4-yl}-1H-quinolin-2-one] |
